# Data reported in the supplement of paper PMC7287046.
# Legend:
# Conditions in all cases: exposure time: 72 h
# U118 [1] = assay: Chou-Talalay combination index (dimensionless); higher = less synergy (more antagonism)
# Method: (§1)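 Glioma cell lines were treated for 72 h with a 6x6 matrix of two drugs, each in twofold dilutions with the top dose at the single-drug IC50. Viability was read by CellTiter-Glo and normalised to DMSO controls, in triplicate. The Chou-Talalay combination index was computed by the median effect principle; CI < 0.8 means synergy.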
# SNB75 [2] = assay: as above
# Method: as §1
# AM38 = assay: as above
# Method: as §1
# T98 = assay: as above
# Method: as §1
# SF539 [3] = assay: as above
# Method: as §1
# U251 [4] = assay: as above
# Method: as §1
# U87 [5] = assay: as above
# Method: as §1
# KNS42 = assay: as above
# Method: as §1
# SF268 [6] = assay: as above
# Method: as §1
# U118 [7] = assay: Bliss synergy score (Combenefit); higher = more synergy; extreme values may be limits of the assay
# Method: (§2)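 The same 6x6 dose matrices of drug pairs on glioma cell lines (72 h, CellTiter-Glo viability normalised to DMSO, triplicate) were scored with Combenefit. The Loewe, Bliss and HSA synergy scores are given; paper thresholds are Loewe 7.8 and Bliss 2.5.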
# SNB75 [8] = assay: as above
# Method: as §2
# KNS-42 [9] = assay: as above
# Method: as §2
# T98G [10] = assay: as above
# Method: as §2
# SF539 [11] = assay: as above
# Method: as §2
# U251 [12] = assay: as above
# Method: as §2
# AM-38 [13] = assay: as above
# Method: as §2
# U87 [14] = assay: as above
# Method: as §2
# SF268 [15] = assay: as above
# Method: as §2
# U118 [16] = assay: Loewe synergy score (Combenefit); higher = more synergy; extreme values may be limits of the assay
# Method: as §2
# SNB75 [17] = assay: as above
# Method: as §2
# KNS-42 [18] = assay: as above
# Method: as §2
# T98G [19] = assay: as above
# Method: as §2
# SF539 [20] = assay: as above
# Method: as §2
# U251 [21] = assay: as above
# Method: as §2
# AM-38 [22] = assay: as above
# Method: as §2
# U87 [23] = assay: as above
# Method: as §2
# SF268 [24] = assay: as above
# Method: as §2
# U118 [25] = assay: HSA synergy score (Combenefit); higher = more synergy
# Method: as §2
# SNB75 [26] = assay: as above
# Method: as §2
# KNS-42 [27] = assay: as above
# Method: as §2
# T98G [28] = assay: as above
# Method: as §2
# SF539 [29] = assay: as above
# Method: as §2
# U251 [30] = assay: as above
# Method: as §2
# AM-38 [31] = assay: as above
# Method: as §2
# U87 [32] = assay: as above
# Method: as §2
# SF268 [33] = assay: as above
# Method: as §2
SMILES,Chou-Talalay combination index (U118 [1]),Chou-Talalay combination index (SNB75 [2]),Chou-Talalay combination index (AM38),Chou-Talalay combination index (T98),Chou-Talalay combination index (SF539 [3]),Chou-Talalay combination index (U251 [4]),Chou-Talalay combination index (U87 [5]),Chou-Talalay combination index (KNS42),Chou-Talalay combination index (SF268 [6]),Bliss synergy score (U118 [7]),Bliss synergy score (SNB75 [8]),Bliss synergy score (KNS-42 [9]),Bliss synergy score (T98G [10]),Bliss synergy score (SF539 [11]),Bliss synergy score (U251 [12]),Bliss synergy score (AM-38 [13]),Bliss synergy score (U87 [14]),Bliss synergy score (SF268 [15]),Loewe synergy score (U118 [16]),Loewe synergy score (SNB75 [17]),Loewe synergy score (KNS-42 [18]),Loewe synergy score (T98G [19]),Loewe synergy score (SF539 [20]),Loewe synergy score (U251 [21]),Loewe synergy score (AM-38 [22]),Loewe synergy score (U87 [23]),Loewe synergy score (SF268 [24]),HSA synergy score (U118 [25]),HSA synergy score (SNB75 [26]),HSA synergy score (KNS-42 [27]),HSA synergy score (T98G [28]),HSA synergy score (SF539 [29]),HSA synergy score (U251 [30]),HSA synergy score (AM-38 [31]),HSA synergy score (U87 [32]),HSA synergy score (SF268 [33])
C#Cc1cccc(Nc2ncnc3cc(OCCOC)c(OCCOC)cc23)c1 [Erlotinib] + CCCCCCCCCCCC1=C(O)C(=O)C=C(O)C1=O [Embelin],0.853,0.836,1.08,0.961,0.728,0.632,1.14,0.797,0.795,0.526,0.771,5.81,0,2.46,10.1,0,0,0.32,2.33,1.7,5.93,0.68,1.08,10.4,0,0,1.59,2.42,6.85,10.4,1.02,8.08,14.6,0,0,4.82
CCC(=O)N1CCN(c2ccc(-n3c(=O)ccc4cnc5ccc(-c6cnc7ccccc7c6)cc5c43)cc2C(F)(F)F)CC1 [Torin1] + O=c1[nH]c2ccccc2n1C1CCN(Cc2ccc(-c3[nH]c4cc5ncnc5cc4nc3-c3ccccc3)cc2)CC1 [Akt inhibitor VIII],0.769,0.591,0.83,0.645,0.778,0.878,0.797,0.852,0.85,5.39,0.0946,6.55,4.49,3.46,1.02,0.504,5.43,0.944,9.44,0.719,11.3,2.94,9.28,0.27,7.92,0.347,5.18,17.9,3.56,16.1,9.39,10.4,1.85,14.7,6.03,13.5
C[C@@H](Oc1cc(-c2cnn(C3CCNCC3)c2)cnc1N)c1c(Cl)ccc(F)c1Cl [Crizotinib] + CCOc1nc(NC(=O)Cc2cc(OC)ccc2OC)cc(N)c1C#N [JNK inhibitor VIII],0.732,0.972,1.13,0.945,0.458,0.838,2.67,0.929,0.637,5.36,0,1.72,0.922,5.02,4.44,0,0,2.4,4.11,4.28,2.75,2.42,2.32,6.52,0.954,0,1.66,9.81,10.4,5.67,2.65,13.6,6.52,1.09,0,6.62
CC(=O)O[C@@]12CO[C@@H]1C[C@H](O)[C@@]1(C)C(=O)[C@H](O)C3=C(C)[C@@H](OC(=O)[C@H](O)[C@@H](NC(=O)OC(C)(C)C)c4ccccc4)C[C@@](O)([C@@H](OC(=O)c4ccccc4)[C@H]21)C3(C)C [Docetaxel] + C#Cc1cccc(Nc2ncnc3cc(OCCOC)c(OCCOC)cc23)c1 [Erlotinib],0.956,0.781,0.962,0.713,0.998,0.678,1.1,0.834,0.934,0.59,4.1,2.96,0.0594,0,2.48,0,0,0.0561,0.504,5.52,7.84,8.54,1.4,5.05,0,0.182,5.33,6.82,5.52,7.84,9.15,2.49,5.05,0,3.14,9.27
CO[C@H]1C[C@@H]2CC[C@@H](C)[C@@](O)(O2)C(=O)C(=O)N2CCCC[C@H]2C(=O)O[C@H]([C@H](C)C[C@@H]2CC[C@@H](O)[C@H](OC)C2)CC(=O)[C@H](C)/C=C(\C)[C@@H](O)[C@@H](OC)C(=O)[C@H](C)C[C@H](C)/C=C/C=C/C=C/1C [Rapamycin] + CCOc1nc(NC(=O)Cc2cc(OC)ccc2OC)cc(N)c1C#N [JNK inhibitor VIII],1.1,0.706,0.906,0.917,1.09,0.74,0.776,0.843,1.09,0,0.0362,1.98,0.183,0,6.55,0,4.63,0,1.75,16.7,6.4,0.183,0.362,5.59,3.73,0.748,0.192,2.12,19.9,6.4,0.183,0.625,8.47,3.73,5.37,0.46
C[C@@H](Oc1cc(-c2cnn(C3CCNCC3)c2)cnc1N)c1c(Cl)ccc(F)c1Cl [Crizotinib] + Cc1cc([C@@H](C)Nc2ccccc2C(=O)O)c2nc(N3CCOCC3)cc(=O)n2c1 [AZD6482],0.844,0.802,0.52,0.543,0.842,0.567,0.652,0.887,0.786,0.491,0.559,3.3,4.32,0.821,12.8,4.62,5.48,0.801,3.69,3.14,3.35,4.32,2.57,16.2,3.58,5.48,3.44,3.87,9.49,4.57,4.32,10.7,16.2,11.9,5.48,6.69
CCC(=O)N1CCN(c2ccc(-n3c(=O)ccc4cnc5ccc(-c6cnc7ccccc7c6)cc5c43)cc2C(F)(F)F)CC1 [Torin1] + CCCCCCCCCCCC1=C(O)C(=O)C=C(O)C1=O [Embelin],0.917,0.841,0.856,0.173,0.855,0.874,0.673,0.865,0.864,1.08,1.77,0.0808,0,0.761,2.83,0.037,2.62,0.248,1.87,1.4,3.32,0,1.98,5.87,1.83,0.761,1.92,2.41,7.31,5.07,0,2.69,6.4,2.04,3.43,2.48
CCC(=O)N1CCN(c2ccc(-n3c(=O)ccc4cnc5ccc(-c6cnc7ccccc7c6)cc5c43)cc2C(F)(F)F)CC1 [Torin1] + C#Cc1cccc(Nc2ncnc3cc(OCCOC)c(OCCOC)cc23)c1 [Erlotinib],0.744,0.61,0.754,0.249,0.678,0.279,0.58,0.917,0.819,2.65,15.6,1.13,4.09,0.68,25.4,0,0.359,0.392,13.7,10.2,3.69,11,9.6,32.9,0,6.1,10.5,20.5,18.2,3.86,11.1,14,35.3,0,11.5,15.2
C=CCc1cccc(/C=N/NC(=O)CN2CCN(Cc3ccccc3)CC2)c1O [PAC-1] + Cc1cc([C@@H](C)Nc2ccccc2C(=O)O)c2nc(N3CCOCC3)cc(=O)n2c1 [AZD6482],0.962,0.976,0.845,0.865,1.01,0.847,0.635,0.882,0.979,0.918,10.9,2.36,5.94,0,1.75,8.49,2.96,0.355,1.77,14.6,2.36,10.2,0.0112,1.75,10.2,2.96,0.594,4.06,21.4,2.36,11.9,0.0112,1.75,10.7,2.96,4.9
